Data: patent US7183099B2, “Inhibitors of autoinducer transporters” (Princeton University, priority 2001, dated 2007)
Like-named read-outs stand apart in the source and are kept apart here.

Assays:
[1] = target: T1, Lsr ABC transporter (Salmonella typhimurium, UniProt Q8ZKQ1); assay: Removal of exogenous AI-2 from S. typhimurium culture fluids; format: cell-based; settings: for input AI-2 activity remaining: wild type lsrR strain
T1 construct: containing a wild type lsr operon; endogenous in cells; host or cells: S. typhimurium 14028 derivatives in a luxS null background (parent SS007, luxS::T-POP; also MET342, ΔlsrR)
Description: (§1) Cultures of S. typhimurium luxS null strains containing a wild type lsr operon or containing mutations inactivating lsr genes were grown to mid-exponential phase in LB at 37° C. AI-2 prepared by our in vitro method was added to the cultures, and the cultures were incubated with the AI-2 for an hour. Subsequently, the cells were removed from the culture fluid by centrifugation, and the resulting cell-free culture fluids were assayed for AI-2 activity using the V. harveyi AI-2 bioassay. This assay involves measuring the increase in light production of a V. harveyi quorum sensing reporter strain that induces bioluminescence exclusively in response to the presence of AI-2. In the present experiment, the bioassay allowed us to determine the level of AI-2 activity remaining in the culture fluids of the different S. typhimurium mutants. Since all the S. typhimurium strains we used in this experiment contained null mutations in luxS, the only AI-2 that could be present in the cell-free culture fluids came from that that we added exogenously.
(§2) Relative levels of AI-2 in cell-free culture fluids of S. typhimurium strains of interest were measured using a V. harveyi bioluminescence assay, as described previously (Bassler et al., 1993; Bassler et al., 1997). Cell-free culture fluids were prepared as described (Surette and Bassler, 1998; Surette et al., 1999). These preparations were assayed for AI-2 activity at 10% (vol/vol), using V. harveyi reporter strain BB170 (luxN::Tn5), as described (Bassler et al., 1993). AI-2 activity is reported as fold induction over background of bioluminescence. To examine the role of Lsr in the uptake of AI-2, cultures of S. typhimurium were grown overnight, diluted 1:100 into fresh LB, and grown for a total of 4 hours. During the final hour of growth, the cells were incubated with 70 μM in vitro prepared AI-2 for specified times (Schauder et al., 2001). Subsequently, the cultures were chilled on ice and cell-free culture fluids were prepared. The AI-2 remaining in these preparations was measured in the V. harveyi bioluminescence assay. Assays were performed in duplicate.

[2] = test system: Lsr ABC transporter; assay: as above; format: cell-based; settings: 1 h
Description: as §1, §2

[3] = test system: V. harveyi reporter strain BB170 (Sensor 1−, Sensor 2+); format: cell-based, Vibrio harveyi
Description: Cell-free culture fluids from E. coli, S. typhimurium and V. harveyi strains were tested for the presence of signaling substances that could induce luminescence in the V. harveyi reporter strain BB170 or BB886. […] Positive control wells contained 10 μl of cell-free culture fluid from strain V. harveyi BB152 (Autoinducer-1^−, Autoinducer-2^+) or V. harveyi BB120 (Autoinducer-1^+, Autoinducer-2^+). Negative control wells contained 10 μl of sterile growth medium. The microtiter dishes were shaken in a rotary shaker at 175 rpm at 30° C.
The cell density was measured by diluting the same aliquots of cells used for measuring luminescence, spreading the dilutions onto solid LM medium, incubating the plates overnight at 30° C., and counting the resulting colonies the following day. […] Cell-free culture supernatants from V. harveyi or S. typhimurium strains were added to a final concentration of 10% (v/v) at the time of the first measurement. In control experiments, 10% (v/v) of AB medium, LB medium or LB medium containing 0.5% glucose was added instead of cell-free culture fluids.

[4] = Stability characterisation of the signaling activity; format: physicochemical
[5] = test system: metE-lacZ fusion; assay: metE-lacZ fusion transcription; format: cell-based, S. typhimurium
Description: The insertion sites of the eight luxS regulated MudJ fusions were determined by arbitrary PCR amplification of the MudJ-chromosome fusion junctions, followed by BLAST database analysis (Caetano-Anolles, 1993; Altschul et al., 1990). One MudJ insertion was located in the metE gene. MetE is involved in the biosynthesis of methionine, that is a precursor of SAM (Weissbach and Brot, 1991). Specifically, MetE catalyzes the final step in methionine biosynthesis in the absence of vitamin B12. Transcription of metE is induced when the substrate homocysteine is available and when the intracellular concentration of methionine is low (Urbanowski and Stauffer, 1989). We reason that metE is not a true target of AI-2 regulation, but instead metE transcription is induced in the wild type luxS strain relative to the luxS null strain because homocysteine is produced during the generation of AI-2 in the LuxS^+ strain.

[6] = test system: wild type S. typhimurium; assay: Growth on AI-2 as sole carbon source; format: cell-based
Text: One possibility is that AI-2 is initially used as a signal, then, at subsequent times, when AI-2 is no longer required for signal transduction, S. typhimurium internalizes it for use as a carbon source. To test this idea, we attempted to grow wild type S. typhimurium on in vitro prepared AI-2 as a sole carbon source. […] Therefore, growth on AI-2 cannot account for its disappearance from the medium. A second possibility is that the removal of AI-2 activity is required for its modification to another signal. For example, the LsrE epimerase, or another enzyme, could convert AI-2 into an internal signal. Finally, AI-2 could be internalized for degradation. In this case, elimination of AI-2 could serve to terminate the signalling process. Signal production coupled to subsequent elimination could allow S. typhimurium the flexibility to transition between several modes of existence. For example, as AI-2 is associated with the presence of many species of bacteria, high levels of AI-2 could be indicative of the transition from outside a host to the intestinal environment, whereas low levels of AI-2 could signal S. typhimurium that it has exited the intestinal tract for the next location in the infection (i.e., the macrophage) where S. typhimurium is not in association with high numbers of commensal bacteria. […]

[7] = wild type lsr strain (luxS null), 1 h incubation

CC(=O)C(=O)C(O)CO (stereo not shown) [AI-2, 4,5-dihydroxy-2,3-pentanedione]
activity gone from the culture fluids ([1]; inactivation of lsrR, 1 h incubation): over 99%
AI-2 activity remaining (induction of the bioassay strain) [1, 7]: 80 fold
disappearance of AI-2 activity from the culture fluid [1, 7]: 92%
input AI-2 activity remaining ([1]; 2 min): 97%
input AI-2 activity remaining ([1]; 15 min): 85%
input AI-2 activity remaining ([1]; 30 min): 82%
input AI-2 activity remaining ([1]; 45 min): 75%
input AI-2 activity remaining ([1]; 60 min): 6%
elimination of AI-2 from the culture fluids ([2]; MudJ insertion mutants in lsrA, lsrC and lsrB): unable to eliminate AI-2 from the culture fluids
level of AI-2 versus input ([2]; ΔlsrR, lsrC::MudJ double mutant): the level of AI-2 did not decrease compared to the input activity
signaling activity degraded ([3]; 0.4 M NaCl shock fluid activity incubated 2 h with S. typhimurium cells pre-incubated in 0.1 M NaCl): greater than 98%
input AI-2 activity (induction of V. harveyi bioluminescence reporter) ([3]; in vitro prepared AI-2 added to S. typhimurium culture, chilled immediately): 1000 fold
stimulation in light production in the bioassay ([3]; in vitro reaction: dialyzed LuxS− cell extract + SAM + LuxS protein, MW<5000 filtrate): over 500 fold
heat resistance of the activity [4]: heat resistant to about 80 but not 100 °C
stability of the activity to acid and base [4]: acid stable and base labile
time the activity is stable in cell-free fluids ([4]; cell-free culture supernatants and 0.4 M NaCl osmotic shock fluids, 30 °C): at least 24 h
heat resistance of the activity ([4]; listed as signaling activity): heat resistant to 80 but not 100 °C
stability of the activity to acid and base ([4]; listed as signaling activity): acid stabile and base labile
heat resistance of the activity ([4]; listed as signaling compound): heat resistant to 80 °C but not 100 °C
stability of the activity to acid and base ([4]; listed as signaling compound): acid stable and base labile
effect of exogenous AI-2 on transcription of the metE-lacZ fusion [5]: did not affect the transcription of the metE-lacZ fusion
growth on in vitro prepared AI-2 as a sole carbon source [6]: could not grow on AI-2
